Laboratory results: patent US4551532A, “Ethylene glycol derivatives having anti-protozoan, anti-fungal and anti-tumor activity” (priority 1980, dated 1985)

Assays:
[1] = system: Cochliobolus miyabeanus; assay: antifungal activity, serial dilution method; format: cell-based; details: Bipolaris oryzae
[2] = system: Pyricularia oryzae; assay: microbe, parasite or virus in culture; format: cell-based
[3] = system: Botrytis cinerea; assay: antifungal activity, serial dilution method; format: cell-based; details: Botrytis cinerea (gray mold); 1% glucose-bouillon agar
[4] = system: Aspergillus niger; assay: antifungal activity, serial dilution method; format: cell-based; details: Aspergillus niger (black mold); 1% glucose-bouillon agar; read-out: MIC
[5] = system: Saccharomyces cerevisiae; assay: antifungal activity, serial dilution method; format: cell-based; details: Saccharomyces cerevisiae (brewer's yeast); 1% glucose-bouillon agar; read-out: MIC
[6] = system: Colletotrichum lagenarium; assay: antifungal activity, serial dilution method; format: cell-based; details: Colletotrichum orbiculare; Colletotrichum lagenarium (cucumber anthracnose); 1% glucose-bouillon agar; read-out: MIC
[7] = system: Sclerotinia sclerotiorum; assay: antifungal activity, serial dilution method; format: cell-based; details: Sclerotinia sclerotiorum (kidney bean stem rot); 1% glucose-bouillon agar
[8] = system: Penicillium; assay: antifungal activity, serial dilution method; format: cell-based, Penicillium niger; details: Penicillium niger (blue mold); 1% glucose-bouillon agar; read-out: MIC
[9] = system: Cryptococcus neoformans; assay: antimycotic activity, paper disk inhibition circle; format: cell-based; details: 48 h, 8 mm paper disk, 3 mg/ml, 37° C., 2 days, read-out: Growth inhibition Cryptococcus
Description: (§1) Referring to the antimycotic activity presented in Table 2, Cryptoccoccus neoformans and others were used as the test microbes, a paper disk (8 mm in diameter) was immersed in an aqueous solution of each test compound having a concentration of 3 mg/ml, air dried and placed on an agar medium, then incubation was conducted at 37° C. for 2 days, and the inhibition circle was measured. When the diameter of the inhibition circle was not larger than 8 mm, 8-10 mm, 10-20 mm, or larger than 20 mm, the activity was judged as -, ±, + or ++, respectively.

[10] = system: Rhodotorula; assay: antimycotic activity, paper disk inhibition circle; format: cell-based; details: 48 h, 8 mm paper disk, 3 mg/ml, 37° C., 2 days, read-out: Growth inhibition Rhodotorula
Description: as §1

[11] = system: Hamigera; assay: antimycotic activity, paper disk inhibition circle; format: cell-based; details: 48 h; 8 mm paper disk, 3 mg/ml, 37° C., 2 days; read-out: Growth inhibition Hamigera
Description: as §1

[12] = system: Tetrahymena pyriformis W strain; assay: antiprotozoal activity, broth dilution method; format: cell-based; details: 28° C., 44-48 hours, pH 7.0, read-out: Growth inhibition MIC Tetrahymena
[13] = hemolysis test by the method of Gottfried et al.; format: cell-based, human; details: human, erythrocytes
Description: (§2) The compounds of this invention are of relatively low toxicity. For example, the compound of Example 7 causes no deaths in CDF1 mice even at an intraperitoneal dose of 100 mg/kg (observation period: one week). The hemolytic activity of these compounds is also low in general. For example, in a hemolysis test (with human erythrocytes) by the method of Gottfried et al. [J. Lipid Research, 4, 57 (1963)], the 50% hemolytic concentration of the compound of Example 15 was about 10 μg/ml.

[14] = system: human erythrocytes; assay: hemolysis test by the method of Gottfried et al.; format: cell-based; details: 5% human albumin, relative to without albumin
Description: as §2

[15] = system: Leptosphaeria salvinii; assay: antifungal activity, serial dilution method; format: cell-based; details: Nakataea oryzae; Leptosphaeria salvinii (rice stem rot); 1% glucose-bouillon agar; read-out: MIC

CCCCCCCCCCCCOCCOCCOP(=O)([O-])OCC[n+]1ccccc1 [Example 15, 2-[2-Dodecyloxy)ethoxy]ethyl 2-pyridinioethyl phosphate]
MIC [1]: 25 µg/mL
MIC [2]: 25 µg/mL
MIC [3]: 12.5 µg/mL
MIC [4]: 25 µg/mL
MIC [5]: 50 µg/mL
MIC [6]: 12.5 µg/mL
MIC [7]: 25 µg/mL
MIC [8]: 12.5 µg/mL
zone of inhibition at 3000 µg/mL [9]: > 20 mm
zone of inhibition at 3000 µg/mL [10]: 10 to 20 mm
zone of inhibition at 3000 µg/mL [11]: 10 to 20 mm
MIC [12]: > 4 µg/mL
HC50 [13]: ~10 µg/mL
50% hemolytic concentration in the presence of human albumin [14]: several times as high
MIC [15]: 25 µg/mL
